From ChEMBL document CHEMBL6153067, “Transition State Analogs of Human DNPH1 Reveal Two Electrophile Migration Mechanisms” (J Med Chem, 2025)
Calls of active or inactive are those of the source. No cut-off for these calls is given here.

Tests used:
[1] = molecular target: T1, 5-hydroxymethyl-dUMP N-hydrolase (Homo sapiens, UniProt O43598); assay: Competitive inhibition of wild-type truncated human DNPH1 extracted from Escherichia coli BL21DE3 using hmdUMP as substrate preincubated for 30 mins followed by substrate addition measured after 60 mins in presence of NADH
T1 sequence (O43598 whole entry): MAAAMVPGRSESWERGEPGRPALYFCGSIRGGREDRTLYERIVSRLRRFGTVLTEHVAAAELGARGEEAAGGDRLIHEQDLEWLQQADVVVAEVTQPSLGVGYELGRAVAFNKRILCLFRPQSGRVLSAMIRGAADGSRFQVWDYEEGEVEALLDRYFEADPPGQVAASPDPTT

[2] = molecular target: T1, 5-hydroxymethyl-dUMP N-hydrolase; assay: Binding affinity to wild-type truncated human DNPH1 extracted from Escherichia coli BL21DE3 assessed as dissociation constant by ITC analysis
[3] = molecular target: T2, 5-hydroxymethyl-dUMP N-hydrolase (Homo sapiens) (UniProt O43598); details: dose 1.0 mM, time 30.0 min
T2 sequence (whole entry): T1 sequence (O43598 whole entry)

[4] = molecular target: T1, 5-hydroxymethyl-dUMP N-hydrolase; assay: Inhibition of wild-type truncated human DNPH1 extracted from Escherichia coli BL21DE3 assessed as decrease in hmdUMP hydrolysis preincubated for 30 mins followed by hmdUMP addition measured after 30 mins in presence of NADH
[5] = molecular target: T1, 5-hydroxymethyl-dUMP N-hydrolase; assay: Binding affinity to DNPH1 (unknown origin) assessed as equilibrium constant

| Ki [1] [µM] | SMILES | also measured |
| --- | --- | --- |
| 5.14 | O=P(O)(O)OC[C@H]1CN(Cc2cc(CO)c(F)nc2F)C[C@@H]1O | – |
| 6.5 | Nc1nc2c(CN3C[C@H](COP(=O)(O)O)[C@@H](O)C3)c[nH]c2c(=O)[nH]1 | – |
| 20.7 | O=P(O)(O)OC[C@H]1CN(Cc2cccnc2)C[C@@H]1O | – |
| > 50 | O=P(O)(O)OC[C@H]1CN(Cc2ccccc2)C[C@@H]1O | – |
| – | O=c1[nH]c(=O)n([C@@H]2O[C@H](COP(=O)(O)O)[C@@H](O)[C@@H]2F)cc1CO | Kd [1]: 0.57 µM; Kd [2]: 0.43 µM; inhibition [3]: Active; Potent Than Ump; IC50 [4]: 1.5 µM |
| 0.61 | O=c1[nH]cc(CN2C[C@H](COP(=O)(O)O)[C@@H](O)C2)cc1CO | – |
| > 50 | O=P(O)(O)OC[C@H]1CNC[C@@H]1OP(=O)(O)O | – |
| – | O=c1[nH]c(=O)n([C@@H]2O[C@H](COP(=O)(O)O)[C@@H](O)[C@H]2O)cc1CO | Kd [1]: 0.6 µM; inhibition [3]: Active; Potent Than Ump; IC50 [4]: 1.3 µM |
| > 50 | O=P(O)(O)OC[C@H]1NCC[C@@H]1O | – |
| > 50 | O=P(O)(O)OC[C@H]1NC[C@H](O)[C@@H]1O | – |
| 2.85 | Nc1ncnc2c(CN3C[C@H](COP(=O)(O)O)[C@@H](O)C3)c[nH]c12 | – |
| 5.17 | O=c1cc(CN2C[C@H](COP(=O)(O)O)[C@@H](O)C2)[nH]c(=O)[nH]1 | – |
| 12.3 | COc1nc(OC)c(CN2C[C@H](COP(=O)(O)O)[C@@H](O)C2)cc1F | – |
| 3.67 | O=P(O)(O)OC[C@H]1CN(Cc2cncc(CO)c2)C[C@@H]1O | – |
| > 50 | O=c1[nH]c(CN2C[C@H](COP(=O)(O)O)[C@@H](O)C2)c(CO)c(=O)[nH]1 | – |
| – | O=c1[nH]c(=O)n([C@@H]2O[C@H](COP(=O)(O)O)[C@@H](O)[C@@H]2O)cc1CO | Kd [1]: > 50 µM; IC50 [4]: > 100 µM |
| 36.8 | O=c1[nH]cccc1CN1C[C@H](COP(=O)(O)O)[C@@H](O)C1 | – |
| – | O=c1[nH]c(=O)n([C@H]2C[C@H](O)[C@@H](CP(=O)(O)O)O2)cc1CO | Kd [5]: 6.3 µM |
| 3.3 | O=P(O)(O)OC[C@H]1CNC[C@@H]1O | Kd [2]: 1.3 µM |
| 25.8 | O=P(O)(O)OC[C@H]1CN(Cc2ccc(F)nc2F)C[C@@H]1O | – |
